The results in this text go back to ChEMBL document CHEMBL5365529, “Construction and Evaluation of Novel Dual-function Antifungal Inhibitors and Covalent Organic Framework Carriers Based on the Infection Microenvironment” (J Med Chem, 2023).

≈ marks a conversion by molar mass, not a printed value. Calls of active or inactive are those of the source. The calls are words filed in the database; no cut-off is given here.

A short description of data set [1]: Toxicity in BALB/c mouse infected with Candida albicans 901 assessed as pathological change in lung at 0.5 ug/g administered 6 times measured after 4 days by H and E staining based analysis. It is filed as tissue-based. The conditions noted are these: in vivo, 96 h, dose 0.5 µg/g, time 4 day.
Data set [2] deals with Candida albicans. Put plainly: Induction of immunity in BALB/c mouse infected with Candida albicans 901 assessed as increase in CD8 positive level at 0.5 ug/g administered 6 times measured after 4 days by IHC analysis. The format is functional, organism-based. The following applies: dose 0.5 µg/g, time 4.0 day.
Data set [3] concerns Candida albicans. Put plainly: Induction of mitochondrial membrane depolarization in Candida albicans SC5314 by JC-1 staining based flow cytometry (reference value: 12.51 %). It is filed as functional.
Data set [4] can be described thus: Toxicity in BALB/c mouse infected with Candida albicans 901 assessed as pathological change in kidney at 0.5 ug/g administered 6 times measured after 4 days by H and E staining based analysis. The conditions noted are these: in vivo, 96 h, dose 0.5 µg/g, time 4 day. The format is tissue-based.
Data set [5] concerns Candida albicans. Kind of data set: Induction of morphological changes in Candida albicans SC5314 assessed as edematous vacuoles measured for 96 to 144 hrs by TEM analysis. It is filed as functional, organism-based. The conditions noted are these: time 96-144 hrs.
Data set [6] is described as follows: Toxicity in BALB/c mouse infected with Candida albicans 901 assessed as plasma AST level at 0.5 ug/g administered 6 times measured after 4 days (reference value: 50.6 +/- 2.3 IU/L). The following applies: in vivo, 96 h, dose 0.5 µg/g, time 4 day.
Data set [7] has as its system Candida albicans. Put plainly: Antifungal activity against Candida albicans 901 infected in BALB/c mouse assessed as decrease in collagen fiber content at 0.5 ug/g administered 6 times measured after 4 days by GMS staining based analysis. It is filed as functional, organism-based. The following applies: dose 0.5 µg/g, time 4.0 day.
Data set [8] in a line: Toxicity in BALB/c mouse infected with Candida albicans 901 assessed as plasma ALT level at 0.5 ug/g administered 6 times measured after 4 days (reference value: 30.4 +/- 4.6 IU/L). The following applies: in vivo, 96 h, dose 0.5 µg/g, time 4 day.
The test system of data set [9] is Candida albicans. Kind of data set: Antifungal activity against Candida albicans 901 infected in BALB/c mouse assessed as decrease in collagen fiber content at 0.5 ug/g administered 6 times measured after 4 days by Masson staining based analysis. It is filed as functional, organism-based. The conditions noted are these: dose 0.5 µg/g, time 4.0 day.
Data set [10] concerns Candida albicans. Put plainly: Antifungal activity against Candida albicans 901 infected in BALB/c mouse assessed as repair of tissue damage at 0.5 ug/g administered 6 times measured after 4 days by GMS staining based analysis. It is filed as functional, organism-based. The conditions noted are these: dose 0.5 µg/g, time 4.0 day.
Data set [11] has as its system Candida albicans. Put plainly: Induction of morphological changes in Candida albicans SC5314 assessed as leakage of cell contents measured for 96 to 144 hrs by TEM analysis. The format is functional, organism-based. The following applies: time 96-144 hrs.
For data set [12], the system named is Candida albicans. Kind of data set: Antifungal activity against Candida albicans 901 infected in BALB/c mouse assessed as restoration of infected tissue morphology at 0.5 ug/g administered 6 times measured after 4 days by H and E staining based analysis. It is filed as functional, organism-based. The conditions noted are these: dose 0.5 µg/g, time 4.0 day.

For data set [13], the target named is T1, Programmed cell death 1 ligand 1 (Homo sapiens, UniProt Q9NZQ7). Kind of data set: Binding affinity to PD-L1 (unknown origin) immobilized on carboxy chip assessed as dissociation constant by SPR analysis. For orientation: Surface plasmon resonance follows binding to a sensor surface in real time, without labels.
T1 sequence (Q9NZQ7 whole entry, the tested form may be a part): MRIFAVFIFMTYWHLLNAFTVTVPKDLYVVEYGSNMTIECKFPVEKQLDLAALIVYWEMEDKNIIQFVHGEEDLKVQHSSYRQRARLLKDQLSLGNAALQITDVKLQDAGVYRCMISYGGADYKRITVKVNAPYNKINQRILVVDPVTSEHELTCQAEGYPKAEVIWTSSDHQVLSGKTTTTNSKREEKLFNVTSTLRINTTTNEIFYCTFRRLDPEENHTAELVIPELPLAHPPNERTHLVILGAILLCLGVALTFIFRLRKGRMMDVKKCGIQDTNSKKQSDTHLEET
Data set [14] has as its system Candida albicans. Kind of data set: Induction of morphological changes in Candida albicans SC5314 assessed as disappearance of nuclear domains measured for 96 to 144 hrs by TEM analysis. The format is functional, organism-based. The following applies: time 96-144 hrs.
Data set [15] relates to Candida albicans. Kind of data set: Induction of apoptosis in Candida albicans SC5314 assessed as increase in ROS level at 1 uM/ml incubated for 48 hrs by fluorescence microscopy. It is filed as functional, organism-based.
The target of data set [16] is Lanosterol 14-alpha demethylase (Candida albicans (strain SC5314 / ATCC MYA-2876) (Yeast), UniProt P10613). Kind of data set: Inhibition of CYP51 in Candida albicans SC5314 assessed as unknown sterol level at 4 ug/ml incubated for 16 hrs by GC-MS analysis (reference value: 5.35 %). Also noted: scale not given: the % may be the effect or the level left. The conditions noted are these: at 4 µg/mL.
Sequence of Lanosterol 14-alpha demethylase (P10613 whole entry): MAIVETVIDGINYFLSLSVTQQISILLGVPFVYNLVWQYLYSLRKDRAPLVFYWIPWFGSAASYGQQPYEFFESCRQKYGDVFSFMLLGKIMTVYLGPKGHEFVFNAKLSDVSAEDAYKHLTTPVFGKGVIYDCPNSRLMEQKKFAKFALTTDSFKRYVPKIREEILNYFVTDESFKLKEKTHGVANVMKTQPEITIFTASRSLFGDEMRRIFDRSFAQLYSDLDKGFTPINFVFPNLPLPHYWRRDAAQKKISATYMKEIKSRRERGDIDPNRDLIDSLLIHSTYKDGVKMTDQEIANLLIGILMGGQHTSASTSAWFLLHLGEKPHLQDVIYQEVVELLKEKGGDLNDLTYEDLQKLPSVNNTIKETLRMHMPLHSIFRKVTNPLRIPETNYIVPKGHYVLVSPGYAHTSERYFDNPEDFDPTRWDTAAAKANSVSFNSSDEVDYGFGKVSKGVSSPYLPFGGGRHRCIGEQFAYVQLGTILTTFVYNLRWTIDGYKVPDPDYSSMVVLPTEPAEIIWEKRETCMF

The subject of data set [17] is Candida albicans. Kind of data set: Antifungal activity against FLC-resistant Candida albicans 904 assessed as fungal growth inhibition incubated for 72 hrs by CLSI based susceptibility test. It is filed as functional.
For data set [18], the system named is Candida albicans. Put plainly: Induction of morphological changes in Candida albicans SC5314 assessed as decrease in cell wall thickness measured after 48 hrs by TEM analysis. It is filed as functional, organism-based.
The subject of data set [19] is Candida albicans. Put plainly: Antifungal activity against Candida albicans 901 infected in BALB/c mouse assessed as appearance of necrotic cell fragments in interstitial space at 0.5 ug/g administered 6 times measured after 4 days by H and E staining based analysis. The conditions noted are these: dose 0.5 µg/g, time 4.0 day. The format is functional, organism-based.

In data set [20] the test system is Candida albicans. Put plainly: Antifungal activity against FLC-resistant Candida albicans 901 assessed as fungal growth inhibition incubated for 72 hrs by CLSI based susceptibility test. The format is functional.
Data set [21] addresses T1, Programmed cell death 1 ligand 1. Put plainly: Inhibition of human PD-L1 incubated for 15 mins by ELISA method. In general terms: In an ELISA, binding on a coated surface is turned into a signal by an enzyme label.

On to `COC(=O)[C@@H](Cn1cncn1)NCc1cccc(OCc2cccc(-c3ccccc3)c2C)c1`, for which the Activity result in data set [1] is given as “Non-Toxic”; with Candida albicans [3], 34.74%; in [4], “Non-Toxic”; in [6] it was 57.4 IU/L; in [8], 21.5 IU/L; in [16] it was 6.65%. Moreover, the result with Candida albicans [2], with Candida albicans [5], with Candida albicans [7], in the data set with Candida albicans [9], in the data set with Candida albicans [10] and in the data set with Candida albicans [11] was Active. The outcome in the data set on Candida albicans [12], with Candida albicans [14], in the data set with Candida albicans [15], with Candida albicans [18] and in the data set on Candida albicans [19] was Active. The Kd (usually the constant that tells how readily two partners part at equilibrium) in data set [13] was found to be 15 nM. Also, the MIC50 with Candida albicans [17] and in the data set on Candida albicans [20] was 2 µg/mL (≈ 4.38 µM) each time. Besides, in data set [21], the IC50 (commonly the midpoint of a concentration-inhibition curve) amounted to 21 nM.
